This is an account of results in publication PMC5358776, “Insight into the mechanism of action of temporin-SHa, a new broad-spectrum antiparasitic and antibacterial agent” (PLoS ONE, 2017).

For data set [1], the system named is E. coli ATCC 25922. Kind of data set: Multipassage resistance selection. Type of data set: cell-based, Escherichia coli. Particulars: for fold increase in the MIC against control bacteria at the end of the selection: lineages grown without antimicrobial agent, passage 55.
Data set [2] relates to L. infantum promastigotes. Particulars: promastigotes, 96 h.
Method: L. infantum axenic amastigotes were differentiated from promastigotes in MAA medium (supplemented with 20% FCS) and were grown at 37°C in 5% CO2 [23].
Antiparasitic activity was evaluated against trypanosomatids, such as Leishmania and Trypanosoma. Antileishmanial activity was determined either by a luminescence-based assay (L. infantum, L. major and L. braziliensis) or by cell counting (FACSCalibur flow cytometer, Becton-Dickinson Biosciences, Woburn, MA, USA) after staining with propidium iodide (L. tropica and L. amazonensis), as previously described [23], using promastigotes or axenic amastigotes (1.25 x 10^6 parasites/ml) in mid-log phase and 5-fold serial dilutions of synthetic temporin (50–3.1 μM, final concentrations). […] The half maximal inhibitory concentration (IC50) value was determined with GraphPad Prism 6.0 software (GraphPad Software, La Jolla, CA, USA) using a sigmoidal dose response (variable slope) curve fitting equation. The results are expressed as the means of three independent experiments performed in triplicate (luminescence-based assays) or in duplicate (cell counting-based assays).
The next data set has as its system Human THP-1 monocytes. Particulars: 72 h.
Data set [3] concerns Gram-negative and Gram-positive bacteria and yeasts/fungi. The data set can be described thus: MIC, whole panel of strains. In kind it is cell-based. Particulars: against all strains.
Data set [4] has as its system E. coli ATCC 25922. Particulars: ATCC 25922.
Method: (§1) Listeria ivanovii Li4pVS2 (kindly provided by Jean-Marc Berjeaud, Université de Poitiers, France), and Streptococcus pyogenes ATCC 19615 (ATCC) were cultured in brain heart infusion (BHI, Sigma-Aldrich) medium under the same conditions.
(§2) Activity against bacteria and yeasts was assessed with a liquid growth inhibition assay performed in 96-well microtitration plates, according to a previously described protocol [14], using mid-logarithmic phase cultures diluted in Mueller-Hinton (MH, Dominique Dutscher) broth (LB broth for E. faecalis strain and YPD medium for yeasts/fungi) to an A630 value of 0.01 (10^6 cfu/ml) and 2-fold serial dilutions of synthetic temporin (200–1 μM, final concentrations). The minimal inhibitory concentration (MIC) was determined as the mean value of three independent experiments, each performed in triplicate with negative (H2O) and positive (0.7% formaldehyde) controls.
Another data set concerns E. coli ML-35p. Particulars: MH broth, 10^6 cfu/ml; mean of 3 independent experiments in triplicate.
The test system of a further data set is P. aeruginosa ATCC 27853. Particulars: ATCC 27853.
Data set [5] concerns S. enterica (serotype Enteritidis). Particulars: serotype Enteritidis.
Method: as §2
The subject of a further data set is A. baumannii ATCC 19606. The following applies: ATCC 19606.
Another data set relates to K. pneumoniae ATCC 13883. Particulars: ATCC 13883.
A further data set deals with S. aureus ATCC 25923. Particulars: ATCC 25923.
The subject of a further data set is S. aureus ST1065. Particulars: ST1065.
Another data set has as its system E. faecalis ATCC 29212. Particulars: ATCC 29212.
The test system of another data set is C. albicans ATCC 90028. The following applies: ATCC 90028, 96 h.
In data set [6] the test system is C. parapsilosis ATCC 22019. The following applies: ATCC 22019, 96 h.
Method: (§3) Candida albicans ATCC 90028, Candida parapsilosis ATCC 22019 (ATCC), and Saccharomyces cerevisiae (laboratory collection) were cultured in yeast peptone dextrose (YPD, Sigma-Aldrich) medium at 30°C.
(§4) The minimal inhibitory concentration (MIC) was determined as the mean value of three independent experiments, each performed in triplicate with negative (H2O) and positive (0.7% formaldehyde) controls.
The test system of the next data set is S. cerevisiae. Particulars: 96 h.
The subject of the next data set is Rat erythrocytes. The following applies: 1 h.
In the next data set the test system is S. pyogenes ATCC 19615. The following applies: ATCC 19615.
The next data set relates to Human erythrocytes. Particulars: 1 h.
In the next data set the test system is Human HepG2. The following applies: MTT, 72 h, 37°C, 50–600 μM; mean of 3 independent experiments in triplicate.

≈ marks a conversion by molar mass, not a printed value. Like-named read-outs stand apart in the source and are kept apart here. Where no end group is shown, it is not given here. Bounds are passed on as bounds.

Method for A. baumannii ATCC 19606: as §2
Method for C. albicans ATCC 90028: as §3, §4
Method for E. coli ML-35p: as §1, §2
Method for E. faecalis ATCC 29212: as §1, §2
Method for Human erythrocytes: (§5) Hemolytic assays were also performed using erythrocytes obtained from fresh blood samples of Wistar male rats (Charles River Laboratories, France). The hemolytic activity was measured by incubating the peptide (1–200 μM, final concentrations) with erythrocytes (2 x 10^7 cells) in PBS (100 μl) for 1 h at 37°C, as previously described [23]. A parallel incubation in the presence of 0.1% (v/v) Triton-X100 was carried out to determine the absorbance associated with 100% hemolysis. […] For THP-1-derived macrophages, viability was determined by Trypan blue staining after incubation with peptide (1–100 μM, final concentrations). LC50 (average concentration of the peptide producing 50% cell lysis) and IC50 values were determined with GraphPad Prism 6.0 software and correspond to the mean obtained from three independent experiments carried out with three (erythrocytes, THP-1 monocytes, HepG2 and HFF cells) or six replicates (THP-1-derived macrophages).
(§6) IC50 or LC50 values were determined for the different human cells mentioned above in the cytotoxicity assays.
Method for K. pneumoniae ATCC 13883: as §2
Method for L. ivanovii: as §1, §2
Method for P. aeruginosa ATCC 27853: as §1, §2
Method for Rat erythrocytes: as §5, §6
Method for S. aureus ATCC 25923: as §2
Method for S. aureus ST1065: as §2
Method for S. cerevisiae: as §3, §4
Method for S. pyogenes ATCC 19615: as §1, §2

The MIC is the least concentration at which growth counts as inhibited. Turning to `CC1(C)S[C@@H]2[C@H](NC(=O)[C@H](N)c3ccccc3)C(=O)N2[C@H]1C(=O)O` [ampicillin], the MIC in the data set with E. coli ATCC 25922 [1] (Escherichia coli, ATCC25922, read-out: MIC (initial, before selection)) was determined as 12.5 µM (≈ 4.37 µg/mL). The “fold increase in the MIC against adapted E. coli lineages” value in the data set on E. coli ATCC 25922 [1] (lineages adapted from MIC/16 to MIC, 55 passages) is reported as 6 fold. Moreover, the “fold increase in the MIC against control bacteria at the end of the selection” value in the data set with E. coli ATCC 25922 [1] was found to be 4 fold.
In the case of D-temporin-SHa [D-SHa], the “fold increase in the MIC against control bacteria at the end of the selection” value in the data set with E. coli ATCC 25922 [1] is listed as about 2 fold.
Broadly, the IC50 is the midpoint of a concentration-inhibition curve. Higher therefore signals lower potency. Regarding “GLWSKIKEVGKEAAKAAAKAAGKAALGAVSEAV-NH2 (C-terminus assumed) [dermaseptin B2, reference compound]”, the IC50 in data set [2] is 2.5 µM; with Human THP-1 monocytes it was about 7 µM.
As a reminder, the LC50 is the concentration lethal to half of the exposed cells or organisms. Read a low LC50 as a more lethal substance. As for “FAKGIAGMAGKLF-NH2 [[A^2,6,9, K^3]SHa, [A^2,6,9, K^3]temporin-SHa]”, the MIC (in data set [3]; in the data set with E. coli ATCC 25922 [4]; in the data set on E. coli ML-35p; in the data set with P. aeruginosa ATCC 27853; in data set [5]; against A. baumannii ATCC 19606) was over 200 µM throughout. Further, the MIC in the data set on K. pneumoniae ATCC 13883, with S. aureus ATCC 25923, in the data set with S. aureus ST1065, in the data set on L. ivanovii, against E. faecalis ATCC 29212 and against C. albicans ATCC 90028 was over 200 µM each time. Moreover, the MIC (in [6]; with S. cerevisiae) was over 200 µM throughout. In addition, the LC50 in the data set on Rat erythrocytes is over 200 µM.
On to “FASGIAGMAGKLF-NH2 [[A^2,6,9]SHa, [A^2,6,9]temporin-SHa]”, for which the MIC (in [3]; against E. coli ATCC 25922 [4]; against E. coli ML-35p; in the data set on P. aeruginosa ATCC 27853; in data set [5]; in the data set on A. baumannii ATCC 19606) was over 200 µM throughout. Also, the minimum inhibitory concentration (MIC) against K. pneumoniae ATCC 13883, in the data set with S. aureus ATCC 25923, against S. aureus ST1065, against S. pyogenes ATCC 19615, in the data set on L. ivanovii and with E. faecalis ATCC 29212 was over 200 µM in each case. The MIC (in the data set on C. albicans ATCC 90028; in data set [6]; with S. cerevisiae) was over 200 µM in each case. Also, the LC50 is over 200 µM with Rat erythrocytes and over 100 µM in the data set with Human erythrocytes. The IC50 in the data set on Human THP-1 monocytes was over 60 µM; in the data set on Human HepG2, over 600 µM.
